Test system: D425 medulloblastoma cells
Assay: Cancer cell viability inhibition (CellTiter-Glo Luminescent Cell Viability Assay)
Type: cell-based
Details: 48 hours treatment, CellTiter-Glo luminescence, test range 1-30 uM, read-out: IC50 for D425 cell growth
Method: D425 medulloblastoma cells were purchased from SigmaAldrich. D425 meduloblastoma cells were cultured in improved Dulbecco's modified Eagle's medium (DMEM) Richter's modification supplemented with 20% fetal bovine serum and 1% Penicillin-streptomycin. Incubation was performed at 37° C. and 5% CO2.
D425 cells were seeded at 3000-3500 cells/90 ul growth medium per well on 96-well tissue culture plates. Cells were incubated overnight to allow them to recover. Next day cells were treated with tested compounds and incubated for 48 hours.
Cell Proliferation assays in triplicate were performed at each concentration. Compounds test range was 1-30 uM (0, 5, 10, 15, 20, 25, and 30). The compounds were dissolved in DMSO. […]
After treatment, cells were allowed to equilibrate at room temperature for one hour. Cell proliferation was measured by Luminescence quantification using Promega CellTiter-Glo Luminescent Cell Viability Assay. […] Luminescence intensity was measured using the Spectramax i3× plate reader.
The Luminescence intensity data were analyzed using the computer software Graphpad Prism. In the absence of the compound, the luminescence intensity (Lt) in each data set was defined as 100% cell viability. The percent cell in the presence of each compound was calculated according to the following equation: % Cell=L/Lt, were L=the luminescence intensity in the presence of the compound. […]

`N=S(=O)(Nc1ccc(OC(F)(F)F)cc1)N1CCCC(C2c3ccccc3CCc3ccccc32)C1` (stereo not shown) [Example 2] showed an IC50 of 9.4 µM.

From patent publication US20260242349A1, “N,N'-SULFONIMIDAMIDES AS ANTICANCER, ANTIINFLAMMATORY, ANTIFIBROTIC AND NEUROPROTECTIVE AGENTS” (Atux Iskay LLC, priority 2023, published 2026)
